From patent US20090191571A1 (priority 2005, published 2009)

Biological target: PrP^Sc (Mus musculus, UniProt P04925)
Sequence (P04925 23-230 limits assumed): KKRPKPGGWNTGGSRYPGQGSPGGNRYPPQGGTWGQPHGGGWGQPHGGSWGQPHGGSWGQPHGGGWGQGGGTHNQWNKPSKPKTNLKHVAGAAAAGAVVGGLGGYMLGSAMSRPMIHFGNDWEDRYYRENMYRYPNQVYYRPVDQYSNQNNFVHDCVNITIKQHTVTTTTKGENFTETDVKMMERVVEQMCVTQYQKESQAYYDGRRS

(GGG)KKRPKPGG [SEQ ID NO:68]
binding to PrP^Sc, Western blotting (FIG. 4, lane 5): strong binding
